According to ChEMBL document CHEMBL2094260, “Malaria Box Tuberculosis Screening Data”:

tested on: Mycobacterium tuberculosis; experiment: MMV: Screen against Mtb, single point, replicating, at 25uM; type: functional

In order of rising inhibition at 25 µM:
1. CCCn1c(=N)c(C(=O)NC2CCCCC2)cc2c(=O)n3cccc(C)c3nc21  -4.62%
2. COc1cc(C(=O)Nc2nc3c(cc4c5c(cccc53)CC4)s2)cc(OC)c1OC  -3.53%
3. CCOC(=O)C1=CN(C)C=C(C(=O)OCC)C1c1cc(Br)c(OCC)c(OC)c1  -1.96%
4. CN(C)c1ccc(-c2nc3cc(N)ccc3[nH]2)cc1  -1%
5. COc1ccc(CCN2C(=O)c3[nH]nc(-c4cc(Cl)c(C)cc4O)c3C2c2ccccc2F)cc1 (stereo not given)  -0.705%
6. CCN1CCCC1CNc1[nH]cnc2c3cc(Cl)ccc3nc1-2 (stereo not given)  0.0616%
7. Cc1ccc(-c2cc3c(SCC(=O)Nc4cc(C(F)(F)F)ccc4Cl)nccn3n2)cc1  3.25%
8. COc1cccc(Cn2c(Oc3ccccc3)nc3c2c(=O)n(C)c(=O)n3C)c1  3.71%
9. COc1ccccc1N1CCN(C(CNS(=O)(=O)c2ccc(Cl)cc2)c2cccnc2)CC1 (stereo not given)  4.01%
10. Cn1c(C(=O)c2cccc3ccccc23)nc2ccccc21  4.31%
11. Cc1cc(NC(=O)c2cccc(C(F)(F)F)c2)n(-c2nc(-c3ccc4c(c3)OCO4)cs2)n1  5.83%
12. CCN(CC)S(=O)(=O)c1ccc(-c2csc(Nc3ccc(C)c(C)c3)n2)cc1  6.89%
13. Cc1cc(C)cc(Nc2cc(C)nc3nc(C(F)(F)F)nn23)c1  7.5%
14. COc1ccc(-c2cn3c(C(=O)Nc4ccccc4Cl)c(-c4ccccc4)c4c3n2CCCC4)cc1  8.39%
15. CCOC(=O)C1(Cc2ccccc2)CCN(Cc2cccc(OC)c2O)CC1  9.17%
16. COc1ccc(C)c2sc(N(Cc3cccnc3)C(=O)c3ccc(C#N)cc3)nc12  9.48%
17. O=C(c1ccccc1F)N(Cc1ccc(Cl)cc1)c1ccccn1  9.78%
18. O=C(Nc1ccc(-c2nc3ccccc3[nH]2)cc1)c1ccc(Cl)c(Cl)c1  9.8%
19. COc1ccccc1CNC(=O)CCn1c(=O)[nH]c2ccsc2c1=O  9.93%
20. O=C(NNc1cc(N2CCCC2)nc(N2CCCC2)n1)c1ccccc1  12%
21. O=C1CC(O)(C(F)(F)C(F)(F)F)Oc2ccccc21 (stereo not given)  13%
22. CCOc1cccc2sc(N(Cc3cccnc3)C(=O)C3CCCCC3)nc12  13.9%
23. CCC(O)c1ccc(Br)cc1NC(=O)c1cccc(Cl)c1 (stereo not given)  13.9%
24. CCOC(=O)c1ccc2nc(-c3ccccc3)cc(O)c2c1  14.6%
25. CC(C)CNC(=O)c1c(N)n(CCc2ccccc2F)c2nc3ccccc3nc12  14.8%
26. COc1ccc(Nc2nc(N/N=C/c3ccc(O)cc3)nc(Nc3ccc([N+](=O)[O-])cc3)n2)cc1  15.3%
27. COc1ccc(/C=C2/SC(=Nc3ccccc3)NC2=O)cc1  15.9%
28. COc1ccc(Br)cc1C1Nc2ccc3ccccc3c2C2=C1C(=O)CC(c1ccccc1)C2 (stereo not given)  16.2%
29. CCCCNCC(O)(c1ccc(Cl)cc1)c1ccc(Cl)cc1  16.9%
30. COc1cc(-c2nc(-c3ccccc3)c(-c3ccccc3)[nH]2)cc(OC)c1O  17%
31. COc1ccc(C2C(C(=O)Nc3cccc(OC)c3)c3ccccc3C(=O)N2C2CCCCC2)cc1 (stereo not given)  19.5%
32. COc1ccc(CNC(=O)c2cc3c(=O)n4ccccc4nc3n(CCc3ccccc3)c2=N)cc1  20.3%
33. O=c1nc(C=Cc2ccc(Br)cc2)oc2ccccc12  20.6%
34. c1ccc(/C2=N/c3ccccc3/N=C(/c3ccccc3)c3ccccc32)cc1  22.3%
35. O=C(Nc1ccc(Cl)cc1C(=O)Nc1ccncc1)c1ccc(Cl)cc1Cl  30%
36. CC(C)c1ccc(CNCC(O)c2ccccc2)cc1 (stereo not given)  30.9%
37. CCCCNc1nc(NC(C)(C)C)nc(NC(C)(C)C)n1  32.8%
38. CN(C)c1ccc(N=Cc2ccc(N3CCOCC3)cc2)cc1  38.8%
39. CC(C)(C)c1ccc(O)c(CNC2CCCCC2)c1  38.8%
40. FC(F)(F)c1ccc(Nc2nnnc3ccccc23)cc1  44.2%

tested on: Mycobacterium tuberculosis; experiment: MMV: Screen against Mtb, single point, non replicating, at 25uM; type: functional

In order of rising inhibition at 25 µM:
1. O=c1nc(C=Cc2ccc(Br)cc2)oc2ccccc12  -13.3%
2. CN(C)c1ccc(N=Cc2ccc(N3CCOCC3)cc2)cc1  -1.53%
3. COc1cccc(Cn2c(Oc3ccccc3)nc3c2c(=O)n(C)c(=O)n3C)c1  -1.06%
4. COc1ccccc1CNC(=O)CCn1c(=O)[nH]c2ccsc2c1=O  0.338%
5. CCCn1c(=N)c(C(=O)NC2CCCCC2)cc2c(=O)n3cccc(C)c3nc21  2.38%
6. COc1ccc(-c2cn3c(C(=O)Nc4ccccc4Cl)c(-c4ccccc4)c4c3n2CCCC4)cc1  2.56%
7. CC(C)CNC(=O)c1c(N)n(CCc2ccccc2F)c2nc3ccccc3nc12  2.78%
8. Cc1cc(NC(=O)c2cccc(C(F)(F)F)c2)n(-c2nc(-c3ccc4c(c3)OCO4)cs2)n1  3.48%
9. CCN1CCCC1CNc1[nH]cnc2c3cc(Cl)ccc3nc1-2 (stereo not given)  4.53%
10. Cc1cc(C)cc(Nc2cc(C)nc3nc(C(F)(F)F)nn23)c1  4.53%
11. O=C(c1ccccc1F)N(Cc1ccc(Cl)cc1)c1ccccn1  5.4%
12. COc1ccc(CNC(=O)c2cc3c(=O)n4ccccc4nc3n(CCc3ccccc3)c2=N)cc1  6.82%
13. Cc1ccc(-c2cc3c(SCC(=O)Nc4cc(C(F)(F)F)ccc4Cl)nccn3n2)cc1  8.19%
14. CCOC(=O)C1(Cc2ccccc2)CCN(Cc2cccc(OC)c2O)CC1  8.77%
15. CCCCNCC(O)(c1ccc(Cl)cc1)c1ccc(Cl)cc1  9.41%
16. CCOC(=O)C1=CN(C)C=C(C(=O)OCC)C1c1cc(Br)c(OCC)c(OC)c1  10.7%
17. CC(C)c1ccc(CNCC(O)c2ccccc2)cc1 (stereo not given)  11.7%
18. CCN(CC)S(=O)(=O)c1ccc(-c2csc(Nc3ccc(C)c(C)c3)n2)cc1  14.1%
19. CCOc1cccc2sc(N(Cc3cccnc3)C(=O)C3CCCCC3)nc12  14.3%
20. CCC(O)c1ccc(Br)cc1NC(=O)c1cccc(Cl)c1 (stereo not given)  14.6%
21. COc1ccccc1N1CCN(C(CNS(=O)(=O)c2ccc(Cl)cc2)c2cccnc2)CC1 (stereo not given)  15.2%
22. CCOC(=O)c1ccc2nc(-c3ccccc3)cc(O)c2c1  15.5%
23. COc1ccc(CCN2C(=O)c3[nH]nc(-c4cc(Cl)c(C)cc4O)c3C2c2ccccc2F)cc1 (stereo not given)  16.2%
24. CN(C)c1ccc(-c2nc3cc(N)ccc3[nH]2)cc1  16.4%
25. CC(C)(C)c1ccc(O)c(CNC2CCCCC2)c1  16.6%
26. COc1cc(C(=O)Nc2nc3c(cc4c5c(cccc53)CC4)s2)cc(OC)c1OC  17.8%
27. COc1cc(-c2nc(-c3ccccc3)c(-c3ccccc3)[nH]2)cc(OC)c1O  18%
28. COc1ccc(Br)cc1C1Nc2ccc3ccccc3c2C2=C1C(=O)CC(c1ccccc1)C2 (stereo not given)  20.9%
29. c1ccc(/C2=N/c3ccccc3/N=C(/c3ccccc3)c3ccccc32)cc1  23.5%
30. COc1ccc(C)c2sc(N(Cc3cccnc3)C(=O)c3ccc(C#N)cc3)nc12  23.9%
31. COc1ccc(/C=C2/SC(=Nc3ccccc3)NC2=O)cc1  24.4%
32. O=C(Nc1ccc(-c2nc3ccccc3[nH]2)cc1)c1ccc(Cl)c(Cl)c1  26.5%
33. O=C(Nc1ccc(Cl)cc1C(=O)Nc1ccncc1)c1ccc(Cl)cc1Cl  27.7%
34. COc1ccc(C2C(C(=O)Nc3cccc(OC)c3)c3ccccc3C(=O)N2C2CCCCC2)cc1 (stereo not given)  29%
35. O=C(NNc1cc(N2CCCC2)nc(N2CCCC2)n1)c1ccccc1  30.6%
36. FC(F)(F)c1ccc(Nc2nnnc3ccccc23)cc1  31.2%
37. Cn1c(C(=O)c2cccc3ccccc23)nc2ccccc21  31.5%
38. COc1ccc(Nc2nc(N/N=C/c3ccc(O)cc3)nc(Nc3ccc([N+](=O)[O-])cc3)n2)cc1  31.8%
39. O=C1CC(O)(C(F)(F)C(F)(F)F)Oc2ccccc21 (stereo not given)  39.1%
40. CCCCNc1nc(NC(C)(C)C)nc(NC(C)(C)C)n1  42.1%
